Data: patent publication US20040220204A1, “Pharmaceutical composition comprising a tricyclic compound for the prevention or treatment of skin diseases” (priority 2001, published 2004)

Experiment: stabilization of FK506 dissolved in lower alkanediols
Assay type: physicochemical
Conditions: such as ethylene glycol, propylene glycol, butylene glycol
Experimental: It was also confirmed that carboxybinyl polymer could make FK506 stable, when FK506 was dissolved in lower alkanediols, such as ethylene glycol, propylene glycol, butylene glycol, etc. And, it was further confirmed that a combination of hydroxypropyl cellulose and ascorbyl palmitate could also make FK506 stable, when FK506 was dissolved in lower alkanediols, such as ethylene glycol, propylene glycol, butylene glycol, etc.

Q: For `C=CC[C@@H]1/C=C(\C)C[C@H](C)C[C@H](OC)[C@H]2O[C@@](O)(C(=O)C(=O)N3CCCC[C@H]3C(=O)O[C@H](/C(C)=C/[C@@H]3CC[C@@H](O)[C@H](OC)C3)[C@H](C)[C@@H](O)CC1=O)[C@H](C)C[C@@H]2OC` [FK506, 17-allyl-1,14-dihydroxy-12-[2-(4-hydroxy-3-methoxycyclohexyl)-1-methylvinyl]-23,25-dimethoxy-13,19,21,27-tetramethyl-11,28-dioxa-4-azatricyclo[22.3.1.0^4,9]octacos-18-ene-2,3,10,16-tetraone], which “stability of FK506 with carboxybinyl polymer” value (carboxybinyl polymer added) is on record?
A: The value was “stable”.

Q: What about the “stability of FK506 with a combination of hydroxypropyl cellulose and ascorbyl palmitate” value (hydroxypropyl cellulose and ascorbyl palmitate added) of the same molecule?
A: The value was “stable”.
